# Reference: patent publication US7858388B2, “MS based peptide and protein sequencing via reactions of lysine residues with peroxycarbonate compounds” (Vanderbilt University, priority 2004, dated 2010)
# Assay: Half-life of peroxycarbonate 1 in basic phosphate buffer (formation of p-nitrophenoxide)
# Assay type: physicochemical
# Conditions: pH 8.2 phosphate buffer (50% MeOH)
# Protocol: Reaction of p-nitrophenylchloroformate with tert-butyl hydroperoxide gave the peroxycarbonate 1 which was isolated by silica chromatography as a white solid. Pyridine was added dropwise to a 0° C. methylene chloride solution of the hydroperoxide and chloroformate. The product was characterized by ^1H and ^13C NMR, HRMS, mp=55-56° C. In basic water or water acetonitrile mixtures, 1 gave an almost immediate yellow color indicative of the formation of p-nitrophenoxide. The half-life of 1 in pH 8.2 phosphate buffer (50% MeOH) is approximately 112 sec. In basic aqueous acetonitrile solutions, αN-acetyl lysine methyl ester was converted cleanly to 2 on reaction with 10 equivalents of 1. The peroxycarbamate 2 (Ac-LPC-OMe) is stable to chromatography and can be fully characterized by spectroscopy and HRMS (“LPC” is used herein for lycine peroxycarbamate).
structure (smiles),measurement,value
CC(C)(C)OOC(=O)Oc1ccc([N+](=O)[O-])cc1 [compound 1],half-life,~1.87 min
